Experimental data from US10189782B2, “Derivatives of indole for the treatment of cancer, viral infections and lung diseases” (BIOKINESIS, priority 2012, dated 2019).
Where a name gives a salt, the structure may show the parent alone. Read-outs that look alike come from different tables or passages of the source.

Experiments:
[1] = biological target: T1, Human recombinant MKlp2 motor domain1-519, His tagged (Homo sapiens, UniProt O95235); assay: Microtubule stimulated ATPase activity of the MKlp2 motor domain (Kinesin ELIPA Assay Kit); format: biochemical; settings: read-out: MKIp2 IC50
T1 construct: Human recombinant MKlp2 motor domain1-519, His tagged; His; purchased Cytoskeleton MP05
T1 sequence (O95235 1-519): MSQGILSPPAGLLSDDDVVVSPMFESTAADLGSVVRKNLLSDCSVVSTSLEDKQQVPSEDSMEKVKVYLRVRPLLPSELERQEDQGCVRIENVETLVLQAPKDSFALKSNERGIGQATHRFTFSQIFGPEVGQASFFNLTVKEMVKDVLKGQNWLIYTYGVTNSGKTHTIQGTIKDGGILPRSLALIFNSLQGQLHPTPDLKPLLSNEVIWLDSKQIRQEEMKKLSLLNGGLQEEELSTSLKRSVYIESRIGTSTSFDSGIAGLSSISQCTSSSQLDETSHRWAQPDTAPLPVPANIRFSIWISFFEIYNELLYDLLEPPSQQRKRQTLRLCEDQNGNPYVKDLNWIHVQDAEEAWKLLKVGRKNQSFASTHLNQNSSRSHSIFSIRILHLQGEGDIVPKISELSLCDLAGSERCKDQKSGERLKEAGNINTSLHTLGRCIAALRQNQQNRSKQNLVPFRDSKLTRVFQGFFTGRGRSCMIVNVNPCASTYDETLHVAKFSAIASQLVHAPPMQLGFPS
In short: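 Microtubule-stimulated ATPase at 22° C, with free phosphate followed in real time by MESG/PNP coupled absorbance at 360 nm. Motor mix in Pipes-NaOH pH 7.0, MgCl2, 30 μM Tx with porcine brain microtubules; reaction started with 5 mM ATP stock at 20% of volume. Kinetic read: 21 readings, 30 s apart.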

K562 cells = assay: Cytotoxicity on human cancer cells (WST-1), K562; format: cell-based; settings: WST-1 on D4, read-out: K562 IC50
Protocol: (§1) Evaluation of Cytotoxicity Effects on Human Cancer Cells
(§2) The effects of the compounds of the invention on the viability of human cancer cells were studied on various human cancer cell lines of differing tissue origins (A549, NCI-H460: lung cancer; MDA-MB-231: breast cancer; HCT-116, HT-29: colon cancer; MIA-PaCa-2: pancreatic cancer; K562: leukaemia). All cell lines were obtained from ATCC or ECACC. Cells were cultured in the culture media described below, under a 37° C., 5% CO2 humidified atmosphere, according to a standard operating procedure.
(§3) On D0, the cells were plated in 90 μl in 96 wells plates at densities ranging from 500 to 5,000 cells per well.
(§4) Following addition of the test substance the cells were protected from light. The solvents (DMSO and specific control solvent were added at the maximal concentration: 10 μl/well (3 wells/condition)).
(§5) On D4, the Cell Proliferation Reagent WST-1 was added to each well (10 μl/well), according to a standard operating procedure. The cells were then incubated for 30 min to 4 h at 37° C.-5% CO2. After these incubations, the 96-well plates were shaken thoroughly for 1 min with Multiskan® EX apparatus (Thermo Labsystems, France). The absorbence was measured at 450 nm, the reference wavelength being 620 nm. The analysis of the results was performed with the Ascent software 2.6 (Thermo Labsystems, France), Microsoft Excel 2003 and GraphPad Prism 4.03 softwares to give the concentration of the compounds that induces the death of 50% of the cells (IC50).

MDA-MB-231 = assay: Cytotoxicity on human cancer cells (WST-1), MDA-MB-231; format: cell-based; settings: MDA-MB-231 breast cancer cells, WST-1 on D4
Protocol: as §1, §2, §3, §4, §5

MIA-PaCa-2 = assay: Cytotoxicity on human cancer cells (WST-1), MIA-PaCa-2; format: cell-based; settings: MIA-PaCa-2 pancreatic cancer cells, WST-1 on D4
Protocol: as §1, §2, §3, §4, §5

A549 = assay: Cytotoxicity on human cancer cells (WST-1), A549; format: cell-based; settings: A549 lung cancer cells, WST-1 on D4
Protocol: as §1, §2, §3, §4
(§6) On D4, the Cell Proliferation Reagent WST-1 was added to each well (10 μl/well), according to a standard operating procedure. The cells were then incubated for 30 min to 4 h at 37° C.-5% CO2. After these incubations, the 96-well plates were shaken thoroughly for 1 min with Multiskan® EX apparatus (Thermo Labsystems, France). The absorbence was measured at 450 nm, the reference wavelength being 620 nm. […]

HT-29 = assay: Cytotoxicity on human cancer cells (WST-1), HT-29; format: cell-based; settings: HT-29 colon cancer cells, WST-1 on D4
Protocol: as §1, §2
HT-29: Mc Coy's 5a+10% FBS+0.5 mM Ultraglutamine
as §3, §4, §6

[2] = Stability studies in mouse plasma; format: in vitro ADME; settings: for Remaining compound 63 (%) (mean ± SEM, n = 2): Mouse plasma, 2 μM, 37° C.
Protocol: (§7) Stability Studies in Mouse or Human Plasma The study was to evaluate the stability of the disclosed compounds after incubation in mouse or human plasma and to measure the metabolites formed. For the disclosed compound, a stock solution was prepared at 200 μM in DMSO. This solution was then 100-fold diluted in 1 ml of mouse or human plasma in order to obtain the required concentration of 2 μM. One aliquot of 100 μl was taken (TO) and the remaining solution was incubated at 37° C. in water bath for 60 min, 120 min and 240 min. At the end of each incubation time 100 μl of plasma was taken, 100 μl of acetonitrile containing 0.1% of formic acid were added to each aliquot in order to stop the enzymatic reaction and to precipitate the proteins. Samples was vortexed/mixed and centrifuged 5 min at 16434.6 g (=14000 rpm) (4° C.). After centrifugation, the clear supernatant (at least 150 μl) was transferred into 1.2 ml HPLC glass vials and sealed. Samples were placed into the refrigerated autosampler and 20 μl were injected into a HPLC-MS/MS. The results are expressed with the percentage of test substance remaining by comparing area under specific chromatographic peak of test samples after incubation with area under specific chromatographic peak at TO (Tables 7 and 8 and FIGS. 1 and 2).

[3] = Stability studies in human plasma; format: in vitro ADME; settings: for Remaining compound 63 (%) (mean ± SEM, n = 2): Human plasma, 2 μM, 37° C.
Protocol: as §7

[4] = Table 6 (prodrugs, formula II), K562 cells

Molecule `CN(C)c1ccc(C#N)cc1/C=C(\C#N)c1c[nH]c2ccc(Br)cc12` [Example 39, (Z)-3-(2-(5-bromo-1H-indol-3-yl)-2-cyanovinyl)-4-(dimethylamino)benzonitrile] has an IC50 ([1]; Table 3, 22° C.) of 200 nM, an IC50 (K562 cells; Table 4, K562 leukaemia cells) of 600 nM and an IC50 (MDA-MB-231) of 0.3 µM. For the same molecule, the IC50 (MIA-PaCa-2) was 0.2 µM, the IC50 (A549) was 0.5 µM and the IC50 (HT-29) was 0.3 µM.
For `COc1ccc(C#N)cc1/C=C(\C#N)c1cn(C(=O)CN(C)C)c2ccc(Br)cc12` [Example 63], the IC50 ([1]; Table 6 (prodrugs, formula II)) was 10600 nM, the IC50 (K562 cells; [4]) was 40 nM and the “Remaining compound 63 (%) (mean ± SEM, n = 2)” value ([2]; incubation time 0 min) was 100.0 ± 0.0%. For the same molecule, the “Remaining compound 63 (%) (mean ± SEM, n = 2)” value ([2]; incubation time 60 min) was 9.0 ± 0.8%, the “Remaining compound 63 (%) (mean ± SEM, n = 2)” value ([2]; incubation time 120 min) was 10.7 ± 8.7% and the “Remaining compound 63 (%) (mean ± SEM, n = 2)” value ([2]; incubation time 240 min) was 4.9 ± 0.5%. For the same molecule, the half-life at 2 μM ([2]; mouse, plasma) was about 33 min, the “Remaining compound 63 (%) (mean ± SEM, n = 2)” value ([3]; incubation time 0 min) was 100.0 ± 0.0% and the “Remaining compound 63 (%) (mean ± SEM, n = 2)” value ([3]; incubation time 60 min) was 49.2 ± 5.1%. For the same molecule, the “Remaining compound 63 (%) (mean ± SEM, n = 2)” value ([3]; incubation time 120 min) was 27.2 ± 5.4%, the “Remaining compound 63 (%) (mean ± SEM, n = 2)” value ([3]; incubation time 240 min) was 21.2 ± 11.2% and the half-life at 2 μM ([3]; human, plasma) was about 60 min.
Work on `COc1ccc(C#N)cc1/C=C(\C#N)c1cn(C(=O)[C@H](N)CCCCN)c2ccc(Br)cc12` [Example 76, (R,Z)-3-(2-(5-bromo-1-(2,6-diaminohexanoyl)-1H-indol-3-yl)-2-cyanovinyl)-4-methoxybenzonitrile dihydrochloride] yielded an IC50 ([1]; Table 6 (prodrugs, formula II)) of 1300 nM and an IC50 (K562 cells; [4]) of 40 nM.
`COc1ccc(C#N)cc1/C=C(\C#N)c1cn(C(=O)CCOP(=O)(O)O)c2ccc(Br)cc12` [Example 79, (Z)-3-(5-bromo-3-(1-cyano-2-(5-cyano-2-methoxyphenyl)vinyl)-1H-indol-1-yl)-3-oxopropyl dihydrogen phosphate] gave an IC50 ([1]; Table 6 (prodrugs, formula II)) of over 50000 nM and an IC50 (K562 cells; [4]) of 400 nM.
